Reference: ChEMBL document CHEMBL1201862, “PubChem BioAssay data set” (2004)
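A five-concentration, 48-hour dose response in 96-well plates underlies each endpoint, interpolated linearly between surrounding concentrations. Abbreviation: GI50, concentration required for 50% inhibition of growth.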 Activity calls are given as the source filed them. Rule as the data show it: active = GI50 up to about 1.1 µM and inactive = higher.

Columns and labels:
Experiment in all cases: DTP human tumour cell line panel, 48 h
[1] = system: HT-29
[2] = system: CCRF-CEM
[3] = system: SN12C
[4] = system: MOLT-4
[5] = system: LXFL 529
[6] = system: MDA-MB-435
[7] = system: BT-549
[8] = system: 786-0
[9] = system: NCI/ADR-RES
[10] = system: OVCAR-4
[11] = system: SF-539
[12] = system: A549
[13] = system: CAKI-1
[14] = system: NCI-H460
[15] = system: SK-MEL-2
[16] = system: OVCAR-8
[17] = system: RXF 393
[18] = system: MCF7
[19] = system: T47D
[20] = system: KM12

SMILES	GI50 [1]	GI50 [2]	GI50 [3]	GI50 [4]	GI50 [5]	GI50 [6]	GI50 [7]	GI50 [8]	GI50 [9]	GI50 [10]	GI50 [11]	GI50 [12]	GI50 [13]	GI50 [14]	GI50 [15]	GI50 [16]	GI50 [17]	GI50 [18]	GI50 [19]	GI50 [20]
CC(=O)NC1COC(COC(=O)CCCCCCCCCCNC(=O)c2ccc([N+](=O)[O-])c3c(=O)c4ccccc4[nH]c23)C(O)C1OC(C)C(=O)NC(C(=O)NC(CCC(N)=O)C(=O)OCc1ccccc1)C(C)C (stereo unspecified)	6.67 µM (inactive)	20.8 µM (inactive)	32.6 µM (inactive)	18.6 µM (inactive)	17.7 µM (inactive)	36.8 µM (inactive)	48.8 µM (inactive)	15 µM (inactive)	32.9 µM (inactive)	8.26 µM (inactive)	20.8 µM (inactive)	25 µM (inactive)	15.2 µM (inactive)	16.9 µM (inactive)	11 µM (inactive)	12.6 µM (inactive)	4.02 µM (inactive)	6.61 µM (inactive)	2.25 µM (inactive)	4.85 µM (inactive)
Cc1cccc(/N=C2\NC(=O)C(CC(=O)Nc3ccc(C)cc3C)S2)c1 (stereo unspecified)	> 100 µM (inactive)	92 µM (inactive)	> 100 µM (inactive)	40.4 µM (inactive)	> 100 µM (inactive)	–	–	> 100 µM (inactive)	–	48.5 µM (inactive)	> 100 µM (inactive)	> 100 µM (inactive)	60.4 µM (inactive)	> 100 µM (inactive)	> 100 µM (inactive)	70.6 µM (inactive)	> 100 µM (inactive)	–	–	–
Cn1cnc([N+](=O)[O-])c1Sc1nccc(O)n1	> 100 µM (inactive)	> 100 µM (inactive)	> 100 µM (inactive)	> 100 µM (inactive)	> 100 µM (inactive)	–	–	> 100 µM (inactive)	–	> 100 µM (inactive)	> 100 µM (inactive)	> 100 µM (inactive)	> 100 µM (inactive)	> 100 µM (inactive)	> 100 µM (inactive)	> 100 µM (inactive)	–	–	–	> 100 µM (inactive)
CC(=O)OCC1OC(Nc2nc(O)n(C)c(=O)c2-c2csc(N)n2)C(OC(C)=O)C(OC(C)=O)C1OC(C)=O (stereo unspecified)	> 100 µM (inactive)	67.6 µM (inactive)	> 100 µM (inactive)	> 100 µM (inactive)	> 100 µM (inactive)	–	–	> 100 µM (inactive)	–	> 100 µM (inactive)	> 100 µM (inactive)	> 100 µM (inactive)	> 100 µM (inactive)	> 100 µM (inactive)	> 100 µM (inactive)	> 100 µM (inactive)	–	–	–	> 100 µM (inactive)
O=c1c2ccccc2sc2nc(O)nn12	> 100 µM (inactive)	> 100 µM (inactive)	> 100 µM (inactive)	> 100 µM (inactive)	> 100 µM (inactive)	–	–	> 100 µM (inactive)	–	> 100 µM (inactive)	> 100 µM (inactive)	> 100 µM (inactive)	> 100 µM (inactive)	> 100 µM (inactive)	> 100 µM (inactive)	> 100 µM (inactive)	> 100 µM (inactive)	–	–	> 100 µM (inactive)
CCN(CC)C(=S)SS(C)(=O)=O	17.3 µM (inactive)	–	16 µM (inactive)	15.8 µM (inactive)	16.4 µM (inactive)	–	–	19.2 µM (inactive)	–	19.6 µM (inactive)	22 µM (inactive)	–	22.4 µM (inactive)	–	17.7 µM (inactive)	19.8 µM (inactive)	11 µM (inactive)	–	–	17.1 µM (inactive)
Cc1c2ccc3ccccc3c2c[n+]2ccccc12	27.5 µM (inactive)	6.59 µM (inactive)	2.94 µM (inactive)	4.66 µM (inactive)	5.36 µM (inactive)	12.6 µM (inactive)	2.96 µM (inactive)	2.37 µM (inactive)	55.2 µM (inactive)	12 µM (inactive)	8.41 µM (inactive)	3.72 µM (inactive)	53.6 µM (inactive)	10.7 µM (inactive)	11.6 µM (inactive)	4.5 µM (inactive)	22.3 µM (inactive)	10.4 µM (inactive)	1.36 µM (inactive)	1.13 µM (inactive)
CC(=O)OC(CCC1(C)OC1COc1ccc(CCNC(=O)C=C(C)C)cc1)C(C)(C)OC(C)=O (stereo unspecified)	46 µM (inactive)	> 40.6 µM (inactive)	> 100 µM (inactive)	8.93 µM (inactive)	12.7 µM (inactive)	16.2 µM (inactive)	0.377 µM (active)	> 100 µM (inactive)	10.6 µM (inactive)	23.7 µM (inactive)	> 100 µM (inactive)	29.3 µM (inactive)	> 100 µM (inactive)	25.6 µM (inactive)	> 51.9 µM (inactive)	22.9 µM (inactive)	13.5 µM (inactive)	–	16.6 µM (inactive)	17.8 µM (inactive)
O=NN(CCCl)C(=O)NC1CCC(CC2CCC(NC(=O)N(CCCl)N=O)CC2)CC1 (stereo unspecified)	> 100 µM (inactive)	1.05 µM (active)	28.4 µM (inactive)	1.21 µM (inactive)	36.1 µM (inactive)	–	–	13.2 µM (inactive)	24.3 µM (inactive)	28.8 µM (inactive)	0.817 µM (active)	33 µM (inactive)	31.3 µM (inactive)	1.74 µM (inactive)	39.1 µM (inactive)	19.9 µM (inactive)	1.66 µM (inactive)	0.316 µM (active)	–	> 73.3 µM (inactive)
COC(=O)C1=C(C)N(NC(=O)c2ccccc2)C2(O)CCCC(=O)C12C (stereo unspecified)	> 100 µM (inactive)	–	> 100 µM (inactive)	–	> 100 µM (inactive)	–	–	–	–	> 100 µM (inactive)	> 100 µM (inactive)	> 100 µM (inactive)	> 100 µM (inactive)	–	> 100 µM (inactive)	> 100 µM (inactive)	> 100 µM (inactive)	–	–	> 100 µM (inactive)
COc1nc2[nH]ccc2c(=O)n1C	> 100 µM (inactive)	> 100 µM (inactive)	> 100 µM (inactive)	> 100 µM (inactive)	> 100 µM (inactive)	–	–	–	–	20.5 µM (inactive)	> 100 µM (inactive)	> 100 µM (inactive)	24.3 µM (inactive)	> 100 µM (inactive)	> 100 µM (inactive)	> 100 µM (inactive)	> 100 µM (inactive)	–	–	> 100 µM (inactive)
Cc1cc(O)nc(NN2C(Cl)C(=O)C2c2cccc(O)c2)n1 (stereo unspecified)	41.7 µM (inactive)	4.63 µM (inactive)	6.31 µM (inactive)	5.38 µM (inactive)	5 µM (inactive)	–	–	–	–	> 100 µM (inactive)	2.74 µM (inactive)	4.44 µM (inactive)	–	4.82 µM (inactive)	4.43 µM (inactive)	7.21 µM (inactive)	3.48 µM (inactive)	–	–	7.1 µM (inactive)
CC(C)c1ccc(O)c(=O)cc1 [GAMMA-THUJAPLICIN]	4.73 µM (inactive)	1.86 µM (inactive)	8.38 µM (inactive)	2.79 µM (inactive)	5.53 µM (inactive)	–	–	5.87 µM (inactive)	–	7.11 µM (inactive)	2.38 µM (inactive)	6.59 µM (inactive)	11.1 µM (inactive)	5.28 µM (inactive)	5 µM (inactive)	3.46 µM (inactive)	22.2 µM (inactive)	–	–	6.32 µM (inactive)
CO/C1=C\C(C)=C\C(C)C(O)C(C)C/C(C)=C/C=C/C(OC)C(C(C)C(O)C(C)C2(O)CC(O)C(C)C(C(C)C)O2)OC1=O (stereo unspecified)	6.64e-05 µM (active)	0.00119 µM (active)	0.01 µM (active)	0.0022 µM (active)	0.000323 µM (active)	0.00198 µM (active)	–	0.00331 µM (active)	–	0.01 µM (active)	0.00193 µM (active)	0.00101 µM (active)	0.00205 µM (active)	0.000401 µM (active)	0.00453 µM (active)	0.00164 µM (active)	0.00526 µM (active)	0.00371 µM (active)	0.00297 µM (active)	0.000351 µM (active)
CCOC(=O)/C(=C/c1ccccn1)C(=O)c1ccccc1	13.9 µM (inactive)	2.81 µM (inactive)	13.7 µM (inactive)	8.34 µM (inactive)	11.1 µM (inactive)	–	–	12.8 µM (inactive)	–	16.1 µM (inactive)	16.7 µM (inactive)	19.2 µM (inactive)	14.5 µM (inactive)	23 µM (inactive)	13.9 µM (inactive)	14.5 µM (inactive)	11.2 µM (inactive)	–	–	11.9 µM (inactive)
